Where two headings read alike, the source gives them in different places.
How the values were obtained:
[1] = Pharmacokinetic assays in mice (iv, po, sc); format: in vivo
[2] = molecular target: T1, VMAT2 (Rattus norvegicus, UniProt Q01827); assay: [3H]Dopamine ([3H]DA) uptake assay, vesicular preparation; format: biochemical
T1 construct: from tissue; host or cells: rat striatum, isolated synaptic vesicles

[3] = Microsomal assays, rat liver microsomes; details: for half-life at 0.08 µM / CLint scaled at 0.08 µM: female, Sprague-Dawley, rat, pH 7.4; for Microsomal stability assays: Species/Half-life (hr) Rat: rat liver microsomes
Method: (§1) Each plate holds triplicate samples of two controls (0.4 mM) and up to 14 compounds (0.08 mM) in rat and human liver microsomes. Aliquots of each well of the plate (175 μl of each well) were transferred from the master plate into 5 assay plates. […] NADPH regenerating system solution A (6.05 ml, Fisher Scientific, #NC9255727) was combined with NADPH regenerating system solution B (1.21 ml, Fisher Scientific, #NC9016235) in potassium phosphate buffer (15.8 ml, 0.1 M, pH 7.4, 37° C.). The resulting NADPH solution (43.8 μl) was added to each well of all the 96-well assay plates and mixed with pipette briefly making the final protein and compound concentrations respectively: 0.5 mg/ml, 0.08 μM (0.4 μM for controls). Plates were sealed, and all plates except the 0-hr plate were incubated at 37° C., shaken at a speed of 60 rpm. A single assay plate was tested at each time point: 0.5 hr, 1 hr, 2 hr, and 4 hr. At each time point, 437.5 μL of pre-cooled internal standard was added each well of the plate to quench the reaction. […] 120 μl supernatant was transferred to a 96-well plate, centrifuged again and analyzed by UPLC-MS (Waters Inc., Milford, MA). The compounds and internal standard were detected by selected ion recording (SIR).
(§2) The amount of material was measured as a ratio of peak area to the internal standard and graphed. Using the slope from the initial linear portion of this curve, the degradation rate constant is calculated using equation [1]. The rate constant was then used to calculate the compounds half-life in plasma using equation [2].

[4] = Microsomal assays, human liver microsomes; details: for half-life at 0.08 µM: both, human, pH 7.4; for Microsomal stability assays: Species/Half-life (hr) Human: human liver microsomes
Method: as §1, §2

[5] = Pharmacokinetic assays in rats (iv, po, sc); details: for bioavailability: male, Sprague-Dawley, in vivo; for bioavailability / Bioavail. (F %) Frat: rat
Method: (§3) Animals: Oral and intravenous dose pharmacokinetic studies were conducted in tandem in age matched female Swiss Webster mice and/or age matched male Sprague-Dawley rats purchased from Envigo-Harlan. Animals were housed in IVC cages with wood chip bedding and given food and water ad libitum.
(§4) Dose Formulation and Administration Volumes: Hydrochloric acid salts or free base forms were used for formulation.
(§5) Pharmacokinetic Studies: Groups of 6 animals were dosed with formulated test compound by bolus lateral tail vein injection (iv), by oral gavage (po), or by subcutaneous injection (sc) into left hind flank. […] Whole blood samples were collected into microtubes and centrifuged at 4000×g for 2 min. Plasma supernatants were collected and immediately frozen on dry ice, then transferred to a −80° C. freezer to await processing for LC-MS/MS analysis. Typical dose rates were 2 mg/kg iv, 10 mg/kg po, and <30 mg/kg sc.
(§6) Plasma calibrators (usually 0.25, 0.5, 1, 5, 15, 30, 100, 400, 700, and 1000 ng/mL) were generated by the addition of 5 μL of appropriate spiking solution into 100 μL blank plasma followed by vortex mixing. Plasma QC samples (usually 0.75, 25, 500, and 850 ng/mL) were prepared in a similar manner using an independent 2nd analyte stock solution. Calibrators and QCs were stored alongside experimental samples at −80° C. until analysis.
(§7) Analyte and internal standard contained in 5 μL sample injections (15° C. temp.; 1.5 mL 0.1% formic acid in MeOH or 1:1 MeOH: isopropanol injector rinse; 10 sec rinse dip time) were eluted from a guard-protected (2.7 μL, 3×5 mm) Agilent Poroshell 120 EC-C18 (2.7 μL, 3×50 mm; oven temp. 40° C.) analytical column with a 0.1% formic acid in water (mobile Phase-A): 0.1% formic acid in acetonitrile (mobile Phase-B) gradient. […] Positive-mode ESI Turbo V® source and MS gas, temperature, and probe settings were optimized for 0.4 mL flow rate at CUR=35/ISV=4500/TEM=550/GS1=65/GS2=65/CAD=10 with the probe position=7/0.5 horizontal/vertical. […] ISTD voltage potentials were set at DP=70, EP=10, CE=35 and CXP=6. Sample sequences consisted of single randomized experimental sample injections flanked by sets of blanks, calibrators and QCs with QCs interspersed, as needed, to maintain >5% total QC to experimental sample occurrence. High QCs (5,000 and 10,000 ng/mL) were inserted at end of sequence prior to second calibrator injections. Calibration curves were typically constructed by weighted (1/x^2) non-linear regression analysis of analyte/ISTD concentration ratios to analyte/ISTD peak area ratios using AB SciexMultiQuant software (Ver 3.0.31721.0).

[6] = molecular target: T2, hERG channel (Homo sapiens, UniProt Q12809); assay: [3H]Dofetilide binding assay, HEK-293 cell membrane preparation; details: hERG Binding: Mean Ki (nM)
T2 construct: purchased; host or cells: HEK-293 cells stably expressing hERG (membranes)
T2 sequence (Q12809 whole entry): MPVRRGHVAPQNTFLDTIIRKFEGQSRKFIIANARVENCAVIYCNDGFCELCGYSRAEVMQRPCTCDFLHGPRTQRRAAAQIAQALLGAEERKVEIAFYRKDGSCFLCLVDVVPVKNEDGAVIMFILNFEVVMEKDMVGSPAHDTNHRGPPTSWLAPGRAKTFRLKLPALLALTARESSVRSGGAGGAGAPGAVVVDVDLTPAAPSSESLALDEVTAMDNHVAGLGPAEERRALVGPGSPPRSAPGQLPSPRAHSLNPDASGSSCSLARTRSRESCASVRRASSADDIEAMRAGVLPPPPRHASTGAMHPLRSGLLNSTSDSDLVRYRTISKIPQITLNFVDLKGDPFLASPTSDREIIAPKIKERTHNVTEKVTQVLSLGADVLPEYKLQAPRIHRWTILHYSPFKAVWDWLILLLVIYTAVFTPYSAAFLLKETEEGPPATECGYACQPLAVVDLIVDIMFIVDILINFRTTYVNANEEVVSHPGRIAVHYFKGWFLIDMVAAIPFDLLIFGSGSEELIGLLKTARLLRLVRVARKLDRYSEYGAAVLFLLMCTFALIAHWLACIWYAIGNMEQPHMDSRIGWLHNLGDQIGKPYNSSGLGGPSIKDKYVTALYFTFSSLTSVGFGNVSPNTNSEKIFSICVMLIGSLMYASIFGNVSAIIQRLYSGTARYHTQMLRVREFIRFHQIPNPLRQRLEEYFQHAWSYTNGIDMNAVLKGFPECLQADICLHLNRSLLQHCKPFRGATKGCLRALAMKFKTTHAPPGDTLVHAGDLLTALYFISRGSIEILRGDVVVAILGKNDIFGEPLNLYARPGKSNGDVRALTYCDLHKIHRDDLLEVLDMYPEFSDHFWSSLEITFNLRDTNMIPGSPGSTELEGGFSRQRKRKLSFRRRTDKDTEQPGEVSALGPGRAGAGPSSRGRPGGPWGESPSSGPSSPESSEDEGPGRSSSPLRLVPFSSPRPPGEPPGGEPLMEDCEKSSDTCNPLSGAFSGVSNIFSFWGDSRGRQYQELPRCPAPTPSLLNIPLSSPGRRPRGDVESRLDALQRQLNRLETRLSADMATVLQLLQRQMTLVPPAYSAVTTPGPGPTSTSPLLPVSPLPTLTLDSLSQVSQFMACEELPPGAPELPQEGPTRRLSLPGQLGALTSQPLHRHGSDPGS
Method: Membranes were suspended in assay buffer (50 mM Tris, 10 mM KCl, 1 mM MgCl2, pH 7.4) prior to the experiment. […] Nonspecific binding was determined in the presence of amitriptyline (1 mM). Samples were incubated for 1 hr. at 24° C., followed by rapid filtration.

[7] = in vivo; details: male, Sprague-Dawley, rat
Method: as §3, §4, §5, §6, §7

[8] = molecular target: dopamine transporter (DAT) (Rattus norvegicus, UniProt P23977); assay: [3H]DA uptake assay, synaptosomal preparation
Sequence of dopamine transporter (DAT) (P23977 whole entry): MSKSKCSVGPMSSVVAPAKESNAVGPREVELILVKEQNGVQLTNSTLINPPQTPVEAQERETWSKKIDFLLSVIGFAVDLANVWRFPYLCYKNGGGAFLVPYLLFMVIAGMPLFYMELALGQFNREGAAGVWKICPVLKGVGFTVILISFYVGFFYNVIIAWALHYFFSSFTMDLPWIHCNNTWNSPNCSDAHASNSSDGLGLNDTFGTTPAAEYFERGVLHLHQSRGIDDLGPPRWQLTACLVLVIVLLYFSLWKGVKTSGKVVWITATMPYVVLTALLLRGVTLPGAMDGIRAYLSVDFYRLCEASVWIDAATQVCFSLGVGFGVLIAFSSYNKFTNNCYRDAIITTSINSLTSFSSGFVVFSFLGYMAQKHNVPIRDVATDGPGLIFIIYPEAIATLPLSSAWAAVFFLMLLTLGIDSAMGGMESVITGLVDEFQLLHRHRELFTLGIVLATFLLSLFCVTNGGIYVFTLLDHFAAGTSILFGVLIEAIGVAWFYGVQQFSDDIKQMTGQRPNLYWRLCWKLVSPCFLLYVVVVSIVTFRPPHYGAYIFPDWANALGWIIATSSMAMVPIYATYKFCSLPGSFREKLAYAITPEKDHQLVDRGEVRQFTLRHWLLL
Method: [^3H]DA and [3H]5-HT uptake into striatal synaptosomes was determined to evaluate compound inhibition of the dopamine transporter (DAT) and the serotonin transporter (SERT), respectively. […] Assays were performed in duplicate in a total volume of 500 μL (for DAT assays) or 250 μL (for SERT assays). Aliquots of the synaptosomal suspension (25 μL for DAT, 50 μL for SERT) were added to tubes containing assay buffer and various concentrations of analog (1 nM-100 μM), and incubated at 34° C. for 5 min. Nonspecific uptake was determined in the presence of nomifensine (10 μM) for DAT assays or fluoxetine (10 μM) for SERT assays. […] Samples were placed on ice, and 50 μL of 0.1 μM [^3H]DA (for DAT assays) or 25 μL of 0.1 μM [^3H]5-HT (for SERT assays) was added to each tube, and incubated for 10 min at 34° C. Reactions were terminated by addition of 3 mL of ice-cold assay buffer and subsequent filtration and radioactivity retained by the filters was determined by liquid scintillation spectrometry (Tri-Carb 2100TR liquid scintillation analyzer; PerkinElmer Life and Analytical Sciences, Boston, MA).

[9] = [3H]dofetilide binding, HEK-293 membranes, mean of n>=3 unless N given
[10] = [3H]DA uptake, rat vesicular preparation, mean of n>=3 unless N given, read-out: VMAT2 (rat) Inhibition: Mean Ki
[11] = Table 4, mean, minimally n = 3, read-out: VMAT2 (rat) Inhibition: Mean Ki

T1 sequence (Q01827 whole entry): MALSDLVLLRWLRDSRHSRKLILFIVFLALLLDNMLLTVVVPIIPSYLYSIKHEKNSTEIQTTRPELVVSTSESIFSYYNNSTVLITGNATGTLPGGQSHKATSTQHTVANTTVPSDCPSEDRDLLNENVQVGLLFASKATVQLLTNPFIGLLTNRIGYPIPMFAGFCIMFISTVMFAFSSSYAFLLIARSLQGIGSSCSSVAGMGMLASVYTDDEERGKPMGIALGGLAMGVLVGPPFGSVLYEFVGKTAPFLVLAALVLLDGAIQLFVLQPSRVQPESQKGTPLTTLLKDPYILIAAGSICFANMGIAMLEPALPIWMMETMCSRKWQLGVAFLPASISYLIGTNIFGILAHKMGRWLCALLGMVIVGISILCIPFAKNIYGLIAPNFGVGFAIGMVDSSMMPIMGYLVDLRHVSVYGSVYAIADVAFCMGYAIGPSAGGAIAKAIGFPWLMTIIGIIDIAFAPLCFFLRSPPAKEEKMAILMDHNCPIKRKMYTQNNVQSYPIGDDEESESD

Compound | Bioavail. (F %) Fmice [1] | Ki [2] [µM] | CLint scaled at 0.08 µM [3] [mL/min/kg] | Ki ([6]; Table 4, mean, minimally n = 3) [nM] | Ki [8] [µM] | further results
CC(Cc1ccc(-c2cncnc2)cc1)NCCCc1ccc(F)cc1 (centres unmarked) [Compound 196] | Fmice: 3.4% (prelim rat done) | 0.008 |  |  |  | 
CC(Cc1ccc(F)cc1)NCCCc1ccc(F)cc1 (centres unmarked) [Compound 190] | Fmice: 5% | 0.009 |  |  |  | 
CC(Cc1ccccc1)NCCCc1ccc(O)cc1 (centres unmarked) [Compound 223] | Fmice: 8.9% |  |  |  |  | 
CC(Cc1ccc(F)cc1)NC(=O)CCc1ccc(C#N)cc1 (centres unmarked) [Compound 294] |  | 40.6 |  |  |  | half-life at 0.08 µM [3]: 48 min; half-life at 0.08 µM [4]: 48 min
CC(Cc1ccc(-c2cccnc2)cc1)NCCCc1ccc(F)cc1 (centres unmarked) [Compound 192] | Fmice: 6.7% |  |  |  |  | 
CC(Cc1ccc(F)c(F)c1)NCCCc1ccc2nonc2c1 (centres unmarked) [Compound 227] |  | 0.049 |  |  |  | Bioavail. (F %) ([5]; species not given): No detection; Ki [6, 9]: 650 nM
CC(Cc1ccc(F)c(F)c1)NCCCc1cccc(NC(N)=O)c1 (centres unmarked) [Compound 235] |  | 0.004 | 71 | 4380 | 1.29 | Ki [6, 9]: 4380 nM; bioavailability ([7]; po): 8%
CC(Cc1ccccc1)NCCCc1ccc(OC(F)(F)F)cc1 (centres unmarked) [Compound 258] |  | 0.016 |  |  |  | half-life at 0.08 µM [4]: > 240 min; Ki [6, 9]: 90 nM
CC(Cc1ccc(F)c(F)c1)NCCCc1cccc(C(N)=O)c1 (centres unmarked) [Compound 237] |  |  | 30 | 4780 | 3.12 | Ki [2, 10]: 0.032 µM; bioavailability ([5]; po, 10 mg/kg): 2%; Ki [6, 9]: 4780 nM
CC(Cc1ccccc1)NCCCc1ccncc1 (centres unmarked) [Compound 204] | Fmice: 10% (prelim rat done) |  |  |  |  | 
CC(Cc1ccc2nccnc2c1)NCCCc1ccc(C(N)=O)cc1 (centres unmarked) [Compound 307] |  | 0.017 | 51 | 21000 | 8.89 | bioavailability ([7]; po): 8%; bioavailability ([7]; sc): > 100%
CC(Cc1ccccc1)NCCCc1ccc(F)cc1 (centres unmarked) [Compound 249] | Fmice: 2.0% | 0.006 |  |  |  | half-life at 0.08 µM [3]: 18 min; half-life at 0.08 µM [4]: 72 min; Ki [6, 9]: 3000 nM
CC(Cc1ccccc1)NCCCc1ccc(S)cc1 (centres unmarked) [Compound 216] | Fmice: 0.9% |  |  |  |  | Microsomal stability assays: Species/Half-life (hr) Rat ([3]; cell prints %): Rat: 0.3%
CC(Cc1ccc(F)cc1)NCCCc1ccncc1 (centres unmarked) [Compound 176] | Fmice: ~22% (prelim rat done) |  |  |  |  | Ki [6, 9]: 5100 nM
CC(Cc1ccc(F)cc1)NCCCc1ccc(C(N)=O)cc1 (centres unmarked) [Compound 298] |  |  | 18 | 12400 | 3.98 | Ki [2, 11]: 0.016 µM
CC(Cc1ccccc1)NCCCc1ccc(C(F)(F)F)cc1 (centres unmarked) [Compound 194] | Fmice: 11.9% |  |  |  |  | 
CC(Cc1ccc(C(F)(F)F)cc1)NCCCc1ccc(O)cc1 (centres unmarked) [Compound 209] |  |  |  |  |  | Microsomal stability assays: Species/Half-life (hr) Rat [3]: 0.2 h; Microsomal stability assays: Species/Half-life (hr) Human [4]: 0.1 h
CC(Cc1ccc2[nH]cnc2c1)NCCCc1ccc(F)cc1 (centres unmarked) [Compound 303] |  | 0.022 | 40 | 2900 | 4.77 | 
CC(Cc1cccc(F)c1)NCCCc1ccc(C(N)=O)cc1 (centres unmarked) [Compound 309] |  |  | 57 | 12000 | 1.63 | Ki [2, 11]: 0.006 µM; bioavailability ([5]; po, 10 mg/kg): 5%; bioavailability ([5]; sc): 76%

Compound | Bioavail. (F %) Fmice [1] | Ki [2] [µM] | CLint scaled at 0.08 µM [3] [mL/min/kg] | Ki ([6]; Table 4, mean, minimally n = 3) [nM] | Ki [8] [µM] | further results
CC(Cc1ccc(F)c(F)c1)NCCCc1ccc(C(N)=O)c(Cl)c1 (centres unmarked) [Compound 297] |  | 0.021 | < 17 | 5020 | 5.82 | 
CC(Cc1ccc(NC(N)=O)cc1)NCCCc1ccc(F)cc1 (centres unmarked) [Compound 302] |  | 0.034 | 30 | 7110 | 3.13 | 
CC(Cc1ccc(F)cc1)NCCCc1ccc(CN)cc1 (centres unmarked) [Compound 285] |  | 0.461 |  |  |  | half-life at 0.08 µM [3]: > 240 min; half-life at 0.08 µM [4]: > 240 min
O=[N+]([O-])c1ccc(CCCNC(CF)Cc2ccc(F)cc2)cc1 (centres unmarked) [Compound 123] |  |  |  |  |  | Microsomal stability assays: Species/Half-life (hr) Rat [3]: 0.4 h; Microsomal stability assays: Species/Half-life (hr) Human [4]: 1.2 h; Ki [2, 10]: 0.044 µM
CC(Cc1ccc(F)c(F)c1)NCCCc1ccc2nc[nH]c2c1 (centres unmarked) [Compound 228] |  | 0.041 | 48 | 6770 | 3.04 | bioavailability ([5]; po, 10 mg/kg): 6%; Bioavail. (F %) Frat [5]: Frat: 5%; Ki [6, 9]: 6770 nM
CC(Cc1ccccc1)NCCCc1ccc(S)cc1 (centres unmarked) [Compound 260] | Fmice: 0.9% |  |  |  |  | 
CC(Cc1ccc2nccnc2c1)NCCCc1ccc(S(N)(=O)=O)cc1 (centres unmarked) [Compound 305] |  | 0.046 | 43 | 4390 | 20.5 | 
CC(Cc1cccc(C(N)=O)c1)NCCCc1ccc(F)cc1 (centres unmarked) [Compound 301] |  |  | 22 | 1310 | 6.07 | Ki [2, 11]: 0.043 µM
CC(Cc1ccc(F)c(F)c1)NCCCc1ccc2nccnc2c1 (centres unmarked) [Compound 232] |  | 0.052 | 159 | 2590 | 3.58 | Ki [6, 9]: 3300 nM
CCC(Cc1ccccc1)NCCCc1ccc(O)cc1 (centres unmarked) [Compound 207] |  |  |  |  |  | Microsomal stability assays: Species/Half-life (hr) Rat [3]: Rat: 0.1 hr Human: 0.1 hr; Microsomal stability assays: Species/Half-life (hr) Human [4]: Rat: 0.1 hr Human: 0.1 hr
COc1ccc(CCCN[C@@H](C)Cc2ccccc2)cc1 [Compound 313] |  | 0.072 | 978 | 4160 |  | half-life at 0.08 µM [3]: < 6 min; Bioavail. (F %) Frat ([5]; route not stated): Frat: 3.4%
CC(Cc1ccccc1)NCCCc1ccc(N)cc1 (centres unmarked) [Compound 220] | Fmice: quant; Frat: quant |  |  |  |  | Bioavail. (F %) Frat [5]: Fmice: quant; Frat: quant
CC(Cc1ccc(F)c(F)c1)NCCCc1ccc(C(N)=O)cc1 (centres unmarked) [Compound 231] |  |  | 23 | 3500 | 2.75 | Ki [2, 10]: 0.029 µM; bioavailability ([5]; po, 10 mg/kg): 62%; bioavailability ([5]; sc): 84%; Bioavail. (F %) Frat [5]: Frat: 80%; Ki [6, 9]: 3500 nM
CC(Cc1cc(F)cc(F)c1)NCCCc1ccc(C(N)=O)cc1 (centres unmarked) [Compound 300] |  |  | 21 | 8100 | 1.57 | Ki [2, 11]: 0.006 µM
CC(Cc1ccc(F)c(F)c1)NCCCc1ccc2[nH]ncc2c1 (centres unmarked) [Compound 234] |  | 0.054 | 114 | 1020 | 0.703 | Ki [6, 9]: 1020 nM
CC(Cc1ccc(F)c(F)c1)NCCCc1ccc2cnoc2c1 (centres unmarked) [Compound 311] |  | 0.051 | 117 | 4200 | 2.72 | 
CC(Cc1ccc(C(N)=O)cc1)NCCCc1ccc(F)cc1 (centres unmarked) [Compound 304] |  |  | 41 | 1610 | 5.57 | Ki [2, 11]: 0.031 µM
CC(Cc1ccc(F)c(F)c1)NCCCc1ccc2nn[nH]c2c1 (centres unmarked) [Compound 312] |  | 0.008 | 115 | 3000 | 1.9 | bioavailability ([5]; po, 10 mg/kg): 7%; bioavailability ([5]; sc): 42%
CC(Cc1ccncc1)NCCCc1ccc(F)cc1 (centres unmarked) [Compound 187] | Fmice: 9.4% |  |  |  |  | half-life at 0.08 µM [4]: > 240 min

Reference: patent US12637410B2, “Vesicular monoamine transporter-2 ligands and their use in the treatment of psychostimulant abuse” (priority 2016, dated 2026)
